Source: US20220096516A1, “OLIGONUCLEOTIDE MOLECULE AND APPLICATION THEREOF IN TUMOR THERAPY” (Ractigen Therapeutics, priority 2019, published 2022)
d = 2'-deoxy (DNA); r = 2'-OH (RNA)

Experiments:
Type in all cases: cell-based, human
[1] = tested on: Huh7 cells; experiment: Cell viability by CCK-8 method, Huh7; details: Huh7, 10 nM, 72 h, FIG. 6B
Method: The 290 saRNAs targeting the LHPP promoter were individually transfected into Huh7 cells, and 72 hour later, one-step RT-qPCR was employed to analyze the expression levels of LHPP mRNA and cell viability was detected by the CCK-8 method.
(§1) The cell viability was detected by the following CCK-8 method: the cCells were plated into a 96-well plate at 3-5×10^3 cells/well, cultured overnight, and transfected with the oligonucleotide duplexes. After 72 hour of transfection, 10 uL of CCK-8 solution (Dojindo Molecular Technologies) was added into each well. After 1 hour of incubation at 37° C., a microplate reader was used to measure absorbances at 450 nm.
(§2) In order to further evaluate the effect of LHPP saRNAs in inducing the mRNA expression of the LHPP gene and inhibiting the proliferation of cancer cells, eight screened saRNAs (RAG7-132, RAG7-133, RAG7-139, RAG7-177, RAG7-178, RAG7-694, RAG7-707 and RAG7-892) each were transfected into the liver cancer cell lines Huh7 (Medical Cell Resource Center, Tohoku University, Japan), HepG2 (ATCC), Hep3B (ATCC), Li-7 (Medical Cell Resource Center, Tohoku University, Japan) and SK-HEP-1 (ATCC), a lung cancer cell line A549 (ATCC), a bladder cancer cell line T24 (ATCC), a prostatic cancer cell line PC3 (ATCC), and a glioma cell line U87MG (ATCC). The mRNA expression and cell viability of the transfected cells were measured.

[2] = tested on: U87MG cells; experiment: saRNA in combination with chemical drugs, CCK-8 viability and combination index (Compusyn), U87MG
Method: The sRNAs were transfected into cancer cells at different concentrations in combination with different chemical drugs. In FIG. 9A, cell viability in the saRNA treatment group was evaluated by the CCK-8 method and recorded as a percentage relative to the viability of cells in a control (Mock) treatment group. In FIG. 9B, Compusyn© version 1.0 software was used to draw a combination index graphs; and to calculate combination index values as shown in FIG. 9C.
The compounds used in the study included: Sorafenib (Sora) (SELLECK, S1040), Lenvatinib (Lenv) (SELLECK, S1164), Regorafenib (Rego) (SELLECK, S1178), and Cabozantinib (Cabo) (SELLECK, S1119). Cells were transfected with each candidate saRNAs at varying concentration gradients for 24 hours. Thereafter, the aforementioned compounds were added to the transfected cells at a concentration of 5 μM and the cells were incubated with the compounds for 48 hours. Cell viability was measured using the CCK-8 method. Compusyn© version 1.0 software (ComboSyn, Inc. Paramus, N.J., USA) was used to analyze the combination index (CI) of drugs, wherein CI<1 represented a synergistic effect, CI=1 represented an additive effect, and CI>1 represented an antagonistic effect.

[3] = tested on: LHPP gene; experiment: High-throughput screening of saRNAs targeting LHPP promoter: LHPP mRNA by one-step RT-qPCR in Huh7 cells; details: 10 nM saRNA, 72 hours, relative to control (Mock)
Method in brief: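 Huh7 cells were transfected with 10 nM saRNA using RNAiMax and lysed 72 h later. LHPP mRNA was quantified by one-step RT-qPCR in triplicate wells. Expression was normalised to HPRT1 and TBP and given as fold change versus mock-transfected cells.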

[4] = tested on: glioma cell line U87MG; experiment: Cell viability by CCK-8 method, U87MG; details: 10 nM, 72 h, FIG. 7B
Method: 8 LHPP promoter-targeting saRNAs were individually transfected into cancer cells at 10 nM for 72 h. In FIG. 7A, the expression level of LHPP mRNA was analyzed by RT-qPCR. In FIG. 7B, cell viability in the saRNA treatment group was evaluated by the CCK-8 method and recorded as a percentage relative to the viability of cells in a control (Mock) treatment group.
as §1, §2

With “RAG7-133: saRNA duplex; sense GCUCUUUGUCCGCUGAUCUTT (SEQ ID NO: 1), antisense AGAUCAGCGGACAAAGAGCTT (SEQ ID NO: 165) (sugars from the 5' end r19 d2, backbone not given here)” the “cell proliferation (cell viability, CCK-8)” value [1] was “inhibited cell proliferation”, the “combination index (CI)” value ([2]; saRNA 1.0 nM to 100 nM with Cabozantinib 5 μM) was under 0.1 and the “combination index (CI)” value ([2]; saRNA 1.0 nM to 100 nM with Lenvatinib 5 μM) was under 0.1. The “combination index (CI)” value ([2]; saRNA with all the four compounds (Sorafenib, Lenvatinib, Regorafenib, Cabozantinib) 5 μM) was under 1, the “Fold of changes in relative LHPP mRNA expression level” value [3] was 2.54 fold and the “Fold of changes in relative LHPP mRNA expression level (log2)” value [3] was 1.35 log2. The “cell proliferation (cell viability, CCK-8)” value [4] was “inhibited cell proliferation”.
